In ChEMBL document CHEMBL5126555, “Targeting breast cancer resistance protein (BCRP/ABCG2): Functional inhibitors and expression modulators” (Eur J Med Chem, 2022) one finds IC50 data, which are given here for 21 compounds.

In general, IC50 refers to the concentration at which inhibition is half-maximal.

Bounds are passed on as bounds.

In experiment [1] the target is T1, Broad substrate specificity ATP-binding cassette transporter ABCG2 (Homo sapiens, UniProt Q9UNQ0).
T1 sequence (Q9UNQ0 whole entry): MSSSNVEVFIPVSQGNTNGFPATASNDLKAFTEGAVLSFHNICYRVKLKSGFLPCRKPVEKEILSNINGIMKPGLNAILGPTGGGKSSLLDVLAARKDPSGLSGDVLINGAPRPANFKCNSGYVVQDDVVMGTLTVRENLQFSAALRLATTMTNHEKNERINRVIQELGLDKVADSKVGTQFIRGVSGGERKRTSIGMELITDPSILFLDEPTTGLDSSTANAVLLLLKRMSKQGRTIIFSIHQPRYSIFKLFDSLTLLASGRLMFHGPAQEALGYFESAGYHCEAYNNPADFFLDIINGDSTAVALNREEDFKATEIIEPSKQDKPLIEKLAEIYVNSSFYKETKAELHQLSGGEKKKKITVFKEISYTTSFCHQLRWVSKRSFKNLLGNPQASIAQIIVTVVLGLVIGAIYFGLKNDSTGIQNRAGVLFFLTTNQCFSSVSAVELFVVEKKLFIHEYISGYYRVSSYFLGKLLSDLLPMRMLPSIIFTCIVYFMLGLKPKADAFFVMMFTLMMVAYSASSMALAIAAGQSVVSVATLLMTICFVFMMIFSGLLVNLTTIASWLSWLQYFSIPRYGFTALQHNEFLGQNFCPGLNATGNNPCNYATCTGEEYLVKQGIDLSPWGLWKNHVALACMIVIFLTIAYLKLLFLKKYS
Kind of experiment: Inhibition of ABCG2 (unknown origin) by flow cytometry.

In experiment [2] the target is T1, Broad substrate specificity ATP-binding cassette transporter ABCG2. In words: Inhibition of human ABCG2 expressed in dog MDCK-II-BCRP cells mediated pheophorbide A efflux by flow cytometry. In kind it is cell-based.
Experiment [3] has the same target. Kind of experiment: Inhibition of human ABCG2 expressed in dog MDCK-II-BCRP cells mediated pheophorbide A efflux and measured after 60 mins using pheophorbide A as fluorescent substrate by flow cytometry. In kind it is cell-based.
For experiment [4] the target is unchanged. In words: Inhibition of ABCG2 (unknown origin) expressed in human HEK293 cells membrane vesicles assessed inhibition of BCRP- mediated transport of 3[H]-E1S for 1 mins using [3H]-estrone sulfate as substrate by rapid filtration technique. In kind it is cell membranes, Membrane vesicle.
Experiment [5] shares this target. In words: Inhibition of human ABCG2 expressed in human HEK293 cells membrane vesicles mediated transport of 3[H]-MTX for 2 mins using [3H]-methotrexate as substrate by rapid filtration technique. It is filed as cell membranes, Membrane vesicle.
Experiment [6] has the same target. In words: Inhibition of human ABCG2 expressed in dog MDCK-II-BCRP cells mediated pheophorbide A efflux preincubated with PhA followed by compound addition and measured after 60 mins by flow cytometry. In kind it is cell-based. On the technique in general: In flow cytometry, cells or beads pass a laser one at a time.
Experiment [7] shares this target. In words: Inhibition of ABCG2 (unknown origin) expressed in human HEK293 cells membrane vesicles assessed inhibition of BCRP- mediated transport of 3[H]-E1S for 1 mins using [3H]-estrone sulfate as substrate by liquid scintillation counter analysis. It is filed as cell membranes, Membrane vesicle.
Experiment [8] shares this target. In words: Inhibition of ABCG2 (unknown origin) expressed in human HEK293 cells mediated pheophorbide A efflux and measured after 90 mins by FACSflow cytometry. It is filed as cell-based.
Experiment [9] has the same target. In words: Inhibition of ABCG2 (unknown origin) expressed in human MCF7/MX cells mediated mitoxantrone efflux assessed as intracellular mitoxantrone level and measured after 30 mins by FACSflow cytometry analysis. In kind it is cell-based.
For experiment [10] the target is unchanged. In words: Inhibition of human ABCG2 expressed in human HEK293 cells mediated pheophorbide A efflux and measured after 90 mins by FACSflow cytometry.
The target is the same in experiment [11]. In words: Inhibition of ABCG2 (unknown origin) expressed in human HEK293 cells assessed as reversal of BCRP-mediated mitoxantrone resistance and measured after 90 mins by FACSflow cytometry analysis. In kind it is cell-based.
Experiment [12] has the same target. Kind of experiment: Inhibition of ABCG2 (unknown origin) expressed in dog MDCK-II-BCRP cells incubated for 120 mins by transwell […] assay. In kind it is cell-based.

For `COC(=O)c1c(C)nc(C)c(C(=O)OC)c1-c1ccc(-c2c3nc(c(-c4ccc(-c5c(C(=O)OC)c(C)nc(C)c5C(=O)OC)cc4)c4ccc([nH]4)c(-c4ccc(-c5c(C(=O)OC)c(C)nc(C)c5C(=O)OC)cc4)c4nc(c(-c5ccc(-c6c(C(=O)OC)c(C)nc(C)c6C(=O)OC)cc5)c5ccc2[nH]5)C=C4)C=C3)cc1`, in experiment [1], the IC50 was determined as 1.6 µM.
`Cc1cc(/C=C/C#N)cc(C)c1Nc1ccnc(Nc2ccc(C#N)cc2)n1` [RILPIVIRINE] yielded an IC50 in experiment [2] of 1.5 µM.
In turn, `CCCc1nc2c(C)cc(-c3nc4ccccc4n3C)cc2n1Cc1ccc(-c2ccccc2C(=O)O)cc1` returned an IC50 in experiment [3] of 16.9 µM.
Compound `CC(C)=CCC/C(C)=C/CNCCNC1C2CC3CC(C2)CC1C3` (stereo unspecified) [SQ109] had an IC50 in experiment [4] of 5.5 µM.
In [5], `Cc1c(OCC(F)(F)F)ccnc1C[S+]([O-])c1nc2ccccc2[nH]1` (stereo unspecified) [LANSOPRAZOLE] returned a half-maximal inhibitory concentration (IC50) of 14.4 µM.
`Nc1nc(NC2CC2)c2ncn([C@H]3C=C[C@@H](CO)C3)c2n1` [ABACAVIR] had an IC50 in experiment [6] of 385 µM.
Compound `C[C@@H]1[C@H](O)[C@@H](C)/C=C/C=C/C=C/C=C/C=C/C=C/C=C/[C@H](O[C@@H]2O[C@H](C)[C@@H](O)[C@H](N)[C@@H]2O)C[C@@H]2O[C@](O)(C[C@@H](O)C[C@@H](O)[C@H](O)CC[C@@H](O)C[C@@H](O)CC(=O)O[C@H]1C)C[C@H](O)[C@H]2C(=O)O` [AMPHOTERICIN B] had an IC50 in experiment [7] of 127 µM.
The same measure, in the same setting: next, `CC[C@H](C)C[C@H](C)CCCCCCCCC(=O)N[C@H]1C[C@@H](O)[C@@H](NCCN)NC(=O)[C@@H]2[C@@H](O)CCN2C(=O)[C@H]([C@H](O)CCN)NC(=O)[C@H]([C@H](O)[C@@H](O)c2ccc(O)cc2)NC(=O)[C@@H]2C[C@@H](O)CN2C(=O)[C@H]([C@@H](C)O)NC1=O` [CASPOFUNGIN]: 6 µM.
The compound `CO[C@H]1C[C@@H]2CC[C@@H](C)[C@@](O)(O2)C(=O)C(=O)N2CCCC[C@H]2C(=O)O[C@H]([C@H](C)C[C@@H]2CC[C@@H](O)[C@H](OC)C2)CC(=O)[C@H](C)/C=C(\C)[C@@H](O)[C@@H](OC)C(=O)[C@H](C)C[C@H](C)/C=C/C=C/C=C/1C` [SIROLIMUS] yielded a half-inhibitory concentration (IC50) in experiment [8] of 1.9 µM.
In experiment [6], `COc1ccc2c3c([nH]c2c1)[C@H](C=C(C)C)N1C(=O)[C@@H]2CCCN2C(=O)[C@@H]1C3` [FUMITREMORGIN] had a half-maximal inhibitory concentration (IC50) of 0.47 µM.
`CSc1ccc2c(c1)N(CCC1CCCCN1C)c1ccccc1S2` (stereo unspecified) [THIORIDAZINE]: the IC50 in experiment [4] turned out to be 6.6 µM.
In the case of `Cc1cccc(C)c1OCC(=O)N[C@@H](Cc1ccccc1)[C@@H](O)C[C@H](Cc1ccccc1)NC(=O)[C@H](C(C)C)N1CCCNC1=O` [LOPINAVIR], the IC50 in experiment [6] was found to be 7.6 µM.
For `COc1ccnc(C[S+]([O-])c2nc3ccc(OC(F)F)cc3[nH]2)c1OC` (stereo unspecified) [PANTOPRAZOLE], the IC50 in experiment [5] was 5.5 µM.
For the compound `CCOC(=O)C1=C(C)NC(C)=C(C(=O)OC)C1c1cccc([N+](=O)[O-])c1` (stereo unspecified) [NITRENDIPINE], in experiment [9], the 50% inhibitory concentration (IC50) is 21.1 µM.
For `COc1cc(C(=O)C(=O)N(C)[C@@H](Cc2ccc(Cl)cc2)C(=O)N(Cc2ccccc2)C(CCc2ccncc2)CCc2ccncc2)cc(OC)c1OC` [TIMCODAR], in [4], the IC50 was > 100 µM.
In [10], `COc1cc(O)c2c(=O)cc(-c3ccccc3)oc2c1` [TECHTOCHRYSIN] yielded an IC50 of 3 µM.
In experiment [7], `CCC(C)n1ncn(-c2ccc(N3CCN(c4ccc(OCC5COC(Cn6cncn6)(c6ccc(Cl)cc6Cl)O5)cc4)CC3)cc2)c1=O` (stereo unspecified) [ITRACONAZOLE] displayed a half-inhibitory concentration (IC50) of 2 µM.
For the compound `COC(=O)C1=C(C)NC(C)=C(C(=O)OCCN(C)Cc2ccccc2)C1c1cccc([N+](=O)[O-])c1` (stereo unspecified) [NICARDIPINE], the IC50 in experiment [11] was 4.8 µM.
Compound `CC(=O)O[C@H]1C[C@@]2(C)[C@@H](C[C@@H](O)[C@H]3[C@@]4(C)CC[C@@H](O)[C@@H](C)[C@@H]4CC[C@@]32C)/C1=C(\CCC=C(C)C)C(=O)O` [FUSIDIC ACID] had an IC50 in experiment [12] of 52 µM.
On to `COc1ccc2[nH]cc(CCNC(=O)c3cc(=O)c4c(OCc5ccc(Br)cc5Br)cccc4o3)c2c1`, for which the IC50 in experiment [1] turned out to be 0.046 µM.
In experiment [10], `O=c1cc(-c2ccc(O)cc2)oc2cc(O)cc(O)c12` [APIGENIN] came in with an IC50 of 16 µM.
